PubChem BioAssay (NCI)
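Values below derive from 48-hour exposures of cells grown in 96-well plates, with endpoints linearly interpolated between the two concentrations bracketing the appropriate inhibition level. At the TGI there is no net growth.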

Assays:
Assay in all cases: DTP human tumour cell line panel, 48 h
[1] = system: NCI-H522 lung
[2] = system: MALME-3M melanoma
[3] = system: T-47D breast
[4] = system: NCI-H460 lung
[5] = system: OVCAR-8 ovarian
[6] = system: HCT-116 colon
[7] = system: OVCAR-3 ovarian
[8] = system: HCC-2998 colon
[9] = system: SNB-75 CNS
[10] = system: RXF 393 renal

| SMILES | TGI [1] | TGI [2] | TGI [3] | TGI [4] | TGI [5] | TGI [6] | TGI [7] | TGI [8] | TGI [9] | TGI [10] |
| --- | --- | --- | --- | --- | --- | --- | --- | --- | --- | --- |
| Cc1c(OCc2ccccc2)c(=O)ccn1CCc1c[nH]c2ccccc12 | 69.4 µM | 88.3 µM | 58.1 µM | > 100 µM | > 100 µM | > 100 µM | 51.4 µM |  |  |  |
| CC1(C)C(CCO)CC1n1ccc(=O)[nH]c1=O (stereo unspecified) |  |  | > 100 µM |  |  | > 100 µM | > 100 µM | > 100 µM | > 100 µM | > 100 µM |
| COc1ccc(C2OCCN2C)cc1 (stereo unspecified) | > 100 µM | > 100 µM | > 100 µM | > 100 µM | > 100 µM | > 100 µM | > 100 µM |  | > 100 µM | > 100 µM |
| CCC(COC(=O)CC[C@@H](NC(=O)C(C)NC(=O)C(C)OC1C(O)C(CO)OC(OCc2ccccc2)C1NC(C)=O)C(N)=O)NC1c2ccccc2Nc2cccc([N+](=O)[O-])c21 (stereo partly specified) | > 100 µM | > 100 µM |  | > 100 µM | > 100 µM | > 100 µM | > 100 µM | > 100 µM | > 100 µM | 84.6 µM |
| CCOC(=O)c1c(C)nc2c(c1-c1cn(-c3ccccc3)nc1-c1ccccc1)C(=O)c1ccccc1-2 | > 100 µM | > 100 µM | > 100 µM |  | > 100 µM | > 100 µM | > 100 µM |  | > 100 µM | > 100 µM |
| CN1N=C(c2ccncc2)OC1c1cccc(C(F)(F)F)c1 (stereo unspecified) | > 100 µM |  | > 100 µM | > 100 µM | > 100 µM | > 100 µM | > 100 µM | > 100 µM | 87.3 µM | > 100 µM |
| CCOC(=O)c1cc2c(OCc3ccccc3)c(OC)cc3c2c(n1)N(c1ccc(OC)cc1)C(C)C3 (stereo unspecified) | > 50 µM | > 50 µM |  | > 50 µM | > 50 µM | > 50 µM | > 50 µM | > 50 µM | > 50 µM | > 50 µM |
| COc1ccc2c(c1)OCCc1cn[nH]c1-2 | > 100 µM | > 100 µM |  | > 100 µM | > 100 µM | > 100 µM | > 100 µM | > 100 µM | > 100 µM | > 100 µM |
| O=C(Sc1c(-c2ccccc2)c(=O)n(-c2ccccc2)c(=S)n1-c1ccccc1)c1cccs1 | > 100 µM | > 100 µM | > 100 µM | > 100 µM | > 100 µM | > 100 µM | > 100 µM |  | > 100 µM |  |
| COC(=O)C1=C(O)C(C(=O)OC)[C@]2(O)[C@@H](C(=O)OC)[C@H]1C[C@@H](c1ccccc1)[C@@H]2C(=O)OC (stereo partly specified) | 20.6 µM | 45.1 µM | > 100 µM | 37.8 µM |  | 21.8 µM | 31.8 µM | 27.3 µM | > 100 µM | 19.9 µM |
| N=C(N)SCCC(=O)CCSC(=N)N | > 100 µM |  | > 100 µM | > 100 µM | > 100 µM | > 100 µM | > 100 µM | > 100 µM | > 100 µM | > 100 µM |
| Cc1nnc2n(c1=O)CCN2C |  | > 100 µM | > 100 µM | > 100 µM | > 100 µM | > 100 µM | > 100 µM | > 100 µM | > 100 µM | > 100 µM |
